Assay results published in patent publication US6017918A, “Phenyl glycine compounds and methods of treating atherosclerosis and restenosis” (Warner-Lambert Company, priority 1999, dated 2000).

Legend:
[1] = test system: apolipoprotein(a), [apo(a)], apolipoproteinB-100, [apoB-100], coupling reaction that generates Lp(a); experiment: LPABC screen: lipoprotein(a) biochemical coupling assay, Lp(a) by ELISA; details: recombinant apo(a) + HepG2 conditioned media, 67 minutes, 37° C.; ^a = multiple tests
Description: The lipoprotein(a), [Lp(a)], biochemical coupling assay (LPABC) is used to characterize inhibitors of the apolipoprotein(a), [apo(a)], apolipoproteinB-100, [apoB-100], coupling reaction that generates Lp(a).
Protocol Conditioned media from 293 cells (ATCC CRL-1573), permanently transfected with an apo(a) 17-kringle cDNA expression construct (pcDNA-AMP, In Vitrogen, Carlsbad, Calif.) using standard molecular biology techniques, was used as a source of recombinant apo(a). The 293 cell conditioned media containing the recombinant apo(a) is diluted 1:3 with phosphate buffered saline (PBS) and 90 μL is pipetted into each well of a 96-well plate and placed into a 37° C. incubator for 10 minutes. Twenty microliters of a 0.3 to 50 μM solution of a compound of the present invention in PBS is added to the warmed plate. Ninety microliters of HepG2 (ATCC HB-8065) cell conditioned media diluted 1:3 with PBS is added to the apo(a)/compound mixture and mixed by pipetting up and down 5 times. The reaction is incubated for 67 minutes in a 37° C. incubator. A 100 μL aliquot of the reaction is removed and assayed for its Lp(a) content by an enzyme linked immunosorbent assay (ELISA).

[2] = test system: Lp(a) production (HepG2^K17 cells); experiment: LPA3 screen: inhibition of Lp(a) production in HepG2^K17 cells, Lp(a) by ELISA; type: cell-based; details: 8 h, Lp(a) normalized for total protein, ^a = multiple tests
Protocol: The LPA3 screen is used to identify compounds that inhibit Lp(a) production. This screen employs permanently transfected HepG2 cells (HepG2^K17) that are generated using an apo(a) 17-kringle cDNA expression construct (pcDNA-AMP, In Vitrogen, Carlsbad, Calif.) in accordance with methods that are well-known in molecular biology.
HepG2^K17 cells are seeded in 96-well plates at a density of 75,000 cells per well in 0.25 mL of Dulbecco's Modified Eagle Media (DMEM) containing 10% fetal bovine serum (FBS). Seeded plates are incubated overnight in a 37° C., 5% CO2 /95% […] incubator. The media is removed, replaced with (1) fresh media, or (2) fresh media plus 0.3 to 50 μM of a compound of the present invention in 20 μL of PBS, and the plates returned to the incubator for 8 hours. After the additional 8 hours of incubation, Lp(a) is assayed in the media by ELISA. Cells are digested with 0.5N NaOH overnight and assayed for total protein. Lp(a) values are normalized for total protein content.

Row | IC50 [1] | SMILES | IC50 [2]
1 | 1.55 µM | CCOC(=O)C(c1cc(C(C)(C)C)c(O)c(C(C)(C)C)c1)N1CCCC1 (stereo not shown) [Example 52, (3,5-Di-tert-butyl-4-hydroxy-phenyl)-(N-pyrollidinyl)-acetic acid ethyl ester] | 2.7 µM
2 | 6.48 µM | CCOC(=O)C(Nc1cccnc1)c1cc(C(C)(C)C)c(O)c(C(C)(C)C)c1 (stereo not shown) [Example 1, (3,5-Di-tert-butyl-4-hydroxy-phenyl)-[(pyridin-3-yl)-amino]-acetic acid ethyl ester] | 7.6 µM
3 | 21 µM | CCOC(=O)C(NCc1cc2c(cc1N)OCO2)c1cc(C(C)(C)C)c(O)c(C(C)(C)C)c1 (stereo not shown) [Example 31, [(6-Amino-benzo[1,3]dioxol-5-ylmethyl)-amino]-(3,5-di-tert-butyl-4-hydroxy-phenyl)-acetic acid ethyl ester] | > 74 µM
4 | 15.9 µM | CCOC(=O)C(NCc1cc(Cl)cc(Cl)c1O)c1cc(C(C)(C)C)c(O)c(C(C)(C)C)c1 (stereo not shown) [Example 35, (3,5-Di-tert-butyl-4-hydroxy-phenyl)-(3,5-dichloro-2-hydroxy-benzylamino)-acetic acid ethyl ester] | > 74 µM
5 | 96.8 µM | CCOC(=O)C(NCc1ccc([N+](=O)[O-])cc1)c1cc(C(C)(C)C)c(O)c(C(C)(C)C)c1 (stereo not shown) [Example 45, (3,5-Di-tert-butyl-4-hydroxy-phenyl)-(4-nitro-benzylamino)-acetic acid ethyl ester] | > 74 µM
6 | 57.6 µM | CCOC(=O)C(NCc1ccc(C#N)cc1)c1cc(C(C)(C)C)c(O)c(C(C)(C)C)c1 (stereo not shown) [Example 34, (4-Cyano-benzylamino)-(3,5-di-tert-butyl-4-hydroxy-phenyl)-acetic acid ethyl ester] | > 74 µM
7 | 6.52 µM | CCOC(=O)C(NCC1CCCCC1)c1cc(C(C)(C)C)c(O)c(C(C)(C)C)c1 (stereo not shown) [Example 6, (Cyclohexylmethyl-amino)-(3,5-di-tert-butyl-4-hydroxy-phenyl)-acetic acid ethyl ester] | > 74 µM
8 | 47.9 µM | CCOC(=O)C(NCc1ccc(Cl)cc1Cl)c1cc(C(C)(C)C)c(O)c(C(C)(C)C)c1 (stereo not shown) [Example 36, (3,5-Di-tert-butyl-4-hydroxy-phenyl)-(2,4-dichloro-benzylamino)-acetic acid ethyl ester] | > 74 µM
9 | 1.48 µM | CCOC(=O)C(c1cc(C(C)(C)C)c(O)c(C(C)(C)C)c1)N(Cc1cccnc1)CC1CCCCC1 (stereo not shown) [Example 16, (Cyclohexylmethyl-pyridin-3-ylmethyl-amino)-(3,5-di-tert-butyl-4-hydroxy-phenyl)-acetic acid ethyl ester] | 3.7 µM
10 | 15 µM | CCOC(=O)C(NCc1ccc(O)c(OC)c1)c1cc(C(C)(C)C)c(O)c(C(C)(C)C)c1 (stereo not shown) [Example 49, (3,5-Di-tert-butyl-4-hydroxy-phenyl)-(4-hydroxy-3-methoxy-benzylamino)-acetic acid ethyl ester] | > 74 µM
11 | 50.2 µM | CCOC(=O)C(NCc1ccccc1F)c1cc(C(C)(C)C)c(O)c(C(C)(C)C)c1 (stereo not shown) [Example 40, (3,5-Di-tert-butyl-4-hydroxy-phenyl)-(2-fluoro-benzylamino]-acetic acid ethyl ester] | > 74 µM
